Measured values taken from patent publication US20100074934A1, “MEDICAL IMPLANTS WITH A COMBINATION OF COMPOUNDS” (priority 2006, published 2010).

System: chick chorioallantoic membrane (CAM)
Experiment: chick chorioallantoic membrane (CAM) assay, inhibition of angiogenesis
Type: in vivo
Parameters: key: 0: normal vascularity; 1: lacking some microvascular movement; small avascular zone approximately 2 mm in diameter; 3: avascularity extending beyond the disk (6 mm in diameter)
Details: 2 day exposure
Description: Paclitaxel, dipyridamole, and a combination of paclitaxel and dipyridimole were tested in a chick chorioallantoic membrane (CAM) assay (A. Cevik Tufan and N. Lalae Satirglu-Tufanm Current Cancer Drug Targets, 2005, 5: 249-266) to measure inhibition of angiogenesis by the compounds.
Fertilized, domestic chick embryos were incubated for 4 days prior to shell-less culturing. In this procedure, the egg contents were emptied by cracking the shell, and allowing the contents of the egg to gently slide out. The egg contents were emptied into sterilized petri dishes and then covered with petri dish covers. These were then placed into an incubator at 37 degrees and 90% relative humidity for 4 days.
Paclitaxel (Hauser Lot 1492-16199A) was fixed at concentrations of 0.3 μg and 1 μg per 10 ul aliquot of 0.5% aqueous methylcellulose (disc). Dipyridamole (Aldrich 285676, Lot 064K157) was added to each fixed dose of paclitaxel at specific molar ratios of 1:3, 1:10, 1:1, 3:1, 10:1. Neat solvent (DMSO), paclitaxel at 0.3 μg and 1 μg per disc and the dipyridamole at 5.92 μg per disc were used as the individual controls. Ten microliter aliquots of this solution were dried on parafilm for 3 hours forming disks 2 mm in diameter. The dried disks containing the combination ratios and controls were then carefully placed at the growing edge of each CAM at day 7 of incubation. After a 2 day exposure ([…]) the vasculature was examined with the aid of a stereomicroscope. Liposyn II, a white opaque solution, was injected into the CAM to increase the visibility of the vascular details.
This imaging setup was used at a magnification of 160× which permitted the direct visualization of blood cells within the capillaries; thereby blood flow in areas of interest may be easily assessed and recorded. For this study, the inhibition of angiogenesis was defined as an area of the CAM (measuring 2-6 mm in diameter) lacking a capillary network and vascular blood flow. Throughout the experiments, avascular zones were assessed on a 4 point avascular gradient (Table 1). This scale represents the degree of overall inhibition with maximal inhibition represented as a 3 on the avascular gradient scale.

| SMILES | Score (avascular gradient scale) (paclitaxel 1 μg/10 μL disc alone) | Score (avascular gradient scale) (dipyridamole 0.02 μg/10 μL disc alone) | Score (avascular gradient scale) (dipyridamole 0.06 μg/10 μL disc alone) | Score (avascular gradient scale) (dipyridamole 5.92 μg/10 μL disc alone) |
| --- | --- | --- | --- | --- |
| CC(=O)O[C@H]1C(=O)[C@@]2(C)[C@H]([C@H](OC(=O)c3ccccc3)[C@]3(O)C[C@H](OC(=O)[C@H](O)[C@@H](NC(=O)c4ccccc4)c4ccccc4)C(C)=C1C3(C)C)[C@]1(OC(C)=O)CO[C@@H]1C[C@@H]2O [Paclitaxel (control), paclitaxel] | 2 | – | – | – |
| OCCN(CCO)c1nc(N2CCCCC2)c2nc(N(CCO)CCO)nc(N3CCCCC3)c2n1 [Dipyridamole (control), 2,6-bis(diethanolamino)-4,8-dipiperidinopyrimido(5,4-d) pyrimidine] | – | 0 | 0 | 0 |
